These results are taken from the RepoRT retention time repository.

Molecules are shown by their SMILES.

The data set is described as follows: HILIC, Waters Atlantis Premier BEH Z-HILIC, 100 × 2.1 mm, 1.7 µm, 40 °C, 0.15 mL/min, estimated dead time 1.5 min; A: water + 20 mM ammonium carbonate + 5 µM medronic acid; B: 10% water + 90% acetonitrile + 2 mM ammonium carbonate + 0.5 µM medronic acid; gradient (min/%B) 0/95 18/60 18.1/20 21.5/20 22/95 23.5/95 25.5/95. The note with it: stereoisomer not certain.

Take `O=C(O)CCC(=O)C(=O)O` [2-Oxoglutaric acid]: the LC retention time was 9.44 min.
Turning to `O=C(O)CCC(O)C(=O)O` (stereo not given) [2-hydroxy glutaric acid], the LC retention time is 10 min.
In the case of `Nc1ncnc2c1ncn2C1OC(COP(=O)(O)OP(=O)(O)O)C(O)C1O` (stereo not given) [ADP] it was 12.2 min; in that of `Nc1ncnc2c1ncn2C1OC(COP(=O)(O)O)C(O)C1O` (stereo not given) [AMP], 9.98 min; in that of `Nc1ncnc2c1ncn2C1OC(COP(=O)(O)OP(=O)(O)OP(=O)(O)O)C(O)C1O` (stereo not given) [ATP], 14.3 min.
With `CC(=O)SCCNC(=O)CCNC(=O)C(O)C(C)(C)COP(=O)(O)OP(=O)(O)OCC1OC(n2cnc3c(N)ncnc32)C(O)C1OP(=O)(O)O` (stereo not given) [Acetyl-CoA], the LC retention time is 10.9 min.
In the case of `Nc1ncnc2c1ncn2C1OC(CO)C(O)C1O` (stereo not given) [Adenosine], the LC retention time is 4.12 min.
Consider `O=C(O)CCCCC1SCC2NC(=O)NC21` (stereo not given) [Biotin], for which the LC retention time was 4.54 min.
The value for `C[N+](C)(C)CC(O)CC(=O)[O-]` (stereo not given) [Carnitine] was 10.4 min.
In the case of `O=C(O)CC(O)(CC(=O)O)C(=O)O` [Citric acid] it was 14.8 min; in that of `CC(C)(COP(=O)(O)OP(=O)(O)OCC1OC(n2cnc3c(N)ncnc32)C(O)C1OP(=O)(O)O)C(O)C(=O)NCCC(=O)NCCS` (stereo not given) [CoenzymeA], 12.9 min.
In the case of `Cc1cc2nc3c(=O)[nH]c(=O)nc-3n(CC(O)C(O)C(O)COP(=O)(O)OP(=O)(O)OCC3OC(n4cnc5c(N)ncnc54)C(O)C3O)c2cc1C` (stereo not given) [FAD] it was 7.66 min; in that of `O=C(CO)C(O)C(O)C(O)COP(=O)(O)O` (stereo not given) [Fructose 6-phosphate], 12.2 min; in that of `O=P(O)(O)OCC1OC(O)(COP(=O)(O)O)C(O)C1O` (stereo not given) [Fructose-1,6-bisphosphate], 16.9 min.
In the case of `Nc1nc2c(ncn2C2OC(COP(=O)(O)OP(=O)(O)OP(=O)(O)O)C(O)C2O)c(=O)[nH]1` (stereo not given) [GTP], the LC retention time was 17.2 min.
Consider `O=P(O)(O)OCC1OC(O)C(O)C(O)C1O` (stereo not given) [Glucose-6-phosphate], for which the LC retention time is 13.3 min.
In the case of `NC(CCC(=O)O)C(=O)O` (stereo not given) [Glutamic acid] it was 10.3 min; in that of `NC(=O)CCC(N)C(=O)O` (stereo not given) [Glutamine], 11 min; in that of `O=P(O)(O)OCC(O)CO` (stereo not given) [Glycerol-3-phosphate], 10.9 min.
As for `OCC1OC(O)C(O)C(O)C1O` (stereo not given) [Hexose], the LC retention time is 7.88 min.
Take `O=C(O)CC(C(=O)O)C(O)C(=O)O` (stereo not given) [Isocitric acid]: the LC retention time was 14.6 min.
In the case of `CCC(C)C(N)C(=O)O` (stereo not given) [Isoleucine] it was 6.62 min.
In the case of `CC(O)C(=O)O` (stereo not given) [Lactic Acid] it was 3.43 min.
In the case of `CC(C)CC(N)C(=O)O` (stereo not given) [Leucine] it was 6.18 min; in that of `NC(=O)C1=CN(C2OC(COP(=O)(O)OP(=O)(O)OCC3OC(n4cnc5c(N)ncnc54)C(O)C3O)C(O)C2O)C=CC1` (stereo not given) [NADH], 9.07 min; in that of `NC(=O)C1=CN(C2OC(COP(=O)(O)OP(=O)(O)OCC3OC(n4cnc5c(N)ncnc54)C(OP(=O)(O)O)C3O)C(O)C2O)C=CC1` (stereo not given) [NADPH], 15 min.
For `NC(=O)c1ccc[n+](C2OC(COP(=O)(O)OP(=O)(O)OCC3OC(n4cnc5c(N)ncnc54)C(OP(=O)(O)O)C3O)C(O)C2O)c1` (stereo not given) [NADP], the LC retention time was 14.4 min.
The value for `NC(=O)c1ccc[n+](C2OC(COP(=O)(O)OP(=O)(O)OCC3OC(n4cnc5c(N)ncnc54)C(O)C3O)C(O)C2O)c1` (stereo not given) [NAD] was 10.9 min; that for `C=C(OP(=O)(O)O)C(=O)O` [PEP] was 14.4 min; that for `O=C(O)C(CO)OP(=O)(O)O` (stereo not given) [Phosphoglyceric acid A] was 13.4 min.
The value for `O=C(O)CCC(=O)O` [Succinic Acid] was 10.1 min; that for `O=C(CO)COP(=O)(O)O` [Triose phosphate] was 10.8 min; that for `CC(=O)NC1C(OP(=O)(O)OP(=O)(O)OCC2OC(n3ccc(=O)[nH]c3=O)C(O)C2O)OC(CO)C(O)C1O` (stereo not given) [UDP-GlcNAc] was 10.5 min.
In the case of `CCC(=O)OC(CC(=O)[O-])C[N+](C)(C)C` (stereo not given) [carnitine-C3] it was 6.75 min; in that of `O=C1CC(C(=O)O)NC(=O)N1` (stereo not given) [dihydroorotic acid], 4.65 min.
